From US20260285872A1, “COMPOUNDS AND METHODS FOR DEGRADING GSPT1” (priority 2023, published 2026) come the findings set out here.

Holding throughout (assay type): cell-based
Assay [1] has as its target T1, GSPT1 (Homo sapiens, UniProt P15170+Q96SW2). Kind of assay: GSPT1 degradation, Western Blot, MV-4-11 cells, 0.1 μM, 4 hours. The settings on record: MV4-11, % reduction of GSPT1 compared to DMSO, normalized to GAPDH, read-out: GSPT1 degradation classification. Here is the method:
Compounds of the present disclosure was added to cells (final DMSO concentration of 0.1%) and incubated for 4 hours. GSPT1 levels were determined in MV-4-11 cells using Western Blot analysis. […] Protein levels were normalized to GAPDH levels.
The efficacy of GSPT1 degradation of a part of compounds of the present disclosure was determined by treating MV-4-11 cells at 0.1 μM (final DMSO concentration of 0.1%) for 4 hours. GSPT1 levels were determined using Western Blot and normalized to GAPDH levels.

In a further assay the test system is MV-4-11 cells. Kind of assay: AML cell viability, CellTiter-Glo, MV-4-11 cells. The settings on record: Homo sapiens, MV4-11; TABLE 2; MV-4-11 cells assumed, CellTiter-Glo, 44 hours; read-out: Cell viability classification. The method, then:
MV4-11 cells were obtained from ATCC and grown in IMDM supplemented with 10% FBS. The cells were maintained at 37° C. under 5% CO2. […] The luminescence was normalized to that of DMSO-treated samples. IC50 values were obtained using three-parameter non-linear regressions using Prism (GraphPad). […] Cell viability was measured using the CellTiter-Glo reagent after 44 hours of treatment. […] MV4-11 cells were obtained from ATCC and grown in IMDM supplemented with 10% FBS. The cells were maintained at 37° C. under 5% CO2. […] Cell viability was measured using the CellTiter-Glo reagent after 44 hours of treatment.

The next assay has as its system HCC827 cells. In words: NSCLC cell viability, CellTiter-Glo, HCC827 cells. The conditions noted are these: Homo sapiens, read-out: Cell viability classification. The method, then:
(§1) HCC827 cells were obtained from Korean Cell Line Bank (KCLB) and grown in RPMI supplemented with 10% FBS. The cells were maintained at 37° C. under 5% CO2.
(§2) The efficacy of the present disclosure to reduce viability of Non-Small Cell Lung Cancer (NSCLC) cells was assessed using CellTiter-Glo Cell Viability Assay (Promega) according to the manufacturer's protocol. […] The luminescence was normalized to that of DMSO-treated samples. IC50 values were obtained using three-parameter non-linear regressions using Prism (GraphPad).
The efficacy of additional compounds of the present disclosure in reducing HCC827 cell viability was determined by treating HCC827 cells at various concentrations (final DMSO concentration of 0.1%). Cell viability was measured using the CellTiter-Glo reagent after 72 hours of treatment.
Background: Cellular ATP, detected with luciferase, serves as a proxy for viable cell number.

Assay [2] deals with T1, GSPT1. Kind of assay: GSPT1 degradation, Western Blot, HCC827 cells, 1 μM, 16 hours. The conditions noted are these: % reduction of GSPT1 compared to DMSO, normalized to GAPDH, read-out: GSPT1 degradation classification. The method, then: as §1
Compounds of the present disclosure was added to cells (final DMSO concentration of 0.1%) and incubated for 16 hours. GSPT1 levels were determined in HCC827 cells using Western Blot analysis. […] Protein levels were normalized to GAPDH levels.
The efficacy of GSPT1 degradation of a part of compounds of the present disclosure was determined by treating HCC827 cells at 1 μM (final DMSO concentration of 0.1%) for 16 hours. GSPT1 levels were determined using Western Blot and normalized to GAPDH levels.
In general terms: A western blot detects proteins with antibodies after separation by electrophoresis.

Another assay deals with A549 cells. Kind of assay: NSCLC cell viability, CellTiter-Glo, A549 cells. The conditions noted are these: Homo sapiens, 72 hours of treatment, read-out: Cell viability classification. Here is the method:
A549 cells were obtained from Korean Cell Line Bank (KCLB) and grown in RPMI supplemented with 10% FBS. The cells were maintained at 37° C. under 5% CO2.
as §2
The efficacy of additional compounds of the present disclosure in reducing A549 cell viability was determined by treating A549 cells at various concentrations (final DMSO concentration of 0.1%). Cell viability was measured using the CellTiter-Glo reagent after 72 hours of treatment.

For assay [3], the target named is T1, GSPT1. In words: GSPT1 degradation, Western Blot, A549 cells, 1 μM, 16 hours. The settings on record: % reduction of GSPT1 compared to DMSO, normalized to GAPDH, read-out: GSPT1 degradation classification.
Experimental: Compounds of the present disclosure was added to cells (final DMSO concentration of 0.1%) and incubated for 16 hours. GSPT1 levels were determined in A549 cells using Western Blot analysis. […] Protein levels were normalized to GAPDH levels.
The efficacy of GSPT1 degradation of a part of compounds of the present disclosure was determined by treating A549 cells at 1 μM (final DMSO concentration of 0.1%) for 16 hours. GSPT1 levels were determined using Western Blot and normalized to GAPDH levels.
Where [4] appears, read: HCC827 cells, CellTiter-Glo, 72 hours of treatment.

Like-named read-outs stand apart in the source and are kept apart here.

T1 sequence (P15170 whole entry): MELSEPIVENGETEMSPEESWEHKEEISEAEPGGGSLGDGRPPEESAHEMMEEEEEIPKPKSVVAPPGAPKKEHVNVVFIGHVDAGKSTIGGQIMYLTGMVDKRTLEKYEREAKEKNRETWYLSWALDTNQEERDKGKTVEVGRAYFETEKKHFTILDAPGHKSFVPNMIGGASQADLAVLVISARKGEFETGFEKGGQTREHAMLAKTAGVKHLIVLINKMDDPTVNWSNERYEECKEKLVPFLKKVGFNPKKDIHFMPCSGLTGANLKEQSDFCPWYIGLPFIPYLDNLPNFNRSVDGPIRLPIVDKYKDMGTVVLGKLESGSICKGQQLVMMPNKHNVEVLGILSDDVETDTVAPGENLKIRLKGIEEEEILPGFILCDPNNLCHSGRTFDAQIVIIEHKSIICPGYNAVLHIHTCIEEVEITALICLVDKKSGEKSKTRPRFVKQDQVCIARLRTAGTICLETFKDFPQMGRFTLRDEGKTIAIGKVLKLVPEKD
T1 sequence (Q96SW2 whole entry): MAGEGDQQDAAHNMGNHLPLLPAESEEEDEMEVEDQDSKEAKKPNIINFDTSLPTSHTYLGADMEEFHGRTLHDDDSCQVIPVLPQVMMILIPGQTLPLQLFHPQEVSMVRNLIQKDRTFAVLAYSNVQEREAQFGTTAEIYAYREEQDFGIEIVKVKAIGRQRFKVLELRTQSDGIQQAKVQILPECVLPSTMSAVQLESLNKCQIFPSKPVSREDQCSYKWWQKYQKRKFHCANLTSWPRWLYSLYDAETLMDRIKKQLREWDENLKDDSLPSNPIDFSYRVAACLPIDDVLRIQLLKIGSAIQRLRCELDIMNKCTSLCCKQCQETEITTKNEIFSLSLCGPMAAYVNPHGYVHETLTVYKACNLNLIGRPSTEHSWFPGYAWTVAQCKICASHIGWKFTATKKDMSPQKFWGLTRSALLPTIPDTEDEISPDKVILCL
T1 sequence (Q16531 whole entry partner): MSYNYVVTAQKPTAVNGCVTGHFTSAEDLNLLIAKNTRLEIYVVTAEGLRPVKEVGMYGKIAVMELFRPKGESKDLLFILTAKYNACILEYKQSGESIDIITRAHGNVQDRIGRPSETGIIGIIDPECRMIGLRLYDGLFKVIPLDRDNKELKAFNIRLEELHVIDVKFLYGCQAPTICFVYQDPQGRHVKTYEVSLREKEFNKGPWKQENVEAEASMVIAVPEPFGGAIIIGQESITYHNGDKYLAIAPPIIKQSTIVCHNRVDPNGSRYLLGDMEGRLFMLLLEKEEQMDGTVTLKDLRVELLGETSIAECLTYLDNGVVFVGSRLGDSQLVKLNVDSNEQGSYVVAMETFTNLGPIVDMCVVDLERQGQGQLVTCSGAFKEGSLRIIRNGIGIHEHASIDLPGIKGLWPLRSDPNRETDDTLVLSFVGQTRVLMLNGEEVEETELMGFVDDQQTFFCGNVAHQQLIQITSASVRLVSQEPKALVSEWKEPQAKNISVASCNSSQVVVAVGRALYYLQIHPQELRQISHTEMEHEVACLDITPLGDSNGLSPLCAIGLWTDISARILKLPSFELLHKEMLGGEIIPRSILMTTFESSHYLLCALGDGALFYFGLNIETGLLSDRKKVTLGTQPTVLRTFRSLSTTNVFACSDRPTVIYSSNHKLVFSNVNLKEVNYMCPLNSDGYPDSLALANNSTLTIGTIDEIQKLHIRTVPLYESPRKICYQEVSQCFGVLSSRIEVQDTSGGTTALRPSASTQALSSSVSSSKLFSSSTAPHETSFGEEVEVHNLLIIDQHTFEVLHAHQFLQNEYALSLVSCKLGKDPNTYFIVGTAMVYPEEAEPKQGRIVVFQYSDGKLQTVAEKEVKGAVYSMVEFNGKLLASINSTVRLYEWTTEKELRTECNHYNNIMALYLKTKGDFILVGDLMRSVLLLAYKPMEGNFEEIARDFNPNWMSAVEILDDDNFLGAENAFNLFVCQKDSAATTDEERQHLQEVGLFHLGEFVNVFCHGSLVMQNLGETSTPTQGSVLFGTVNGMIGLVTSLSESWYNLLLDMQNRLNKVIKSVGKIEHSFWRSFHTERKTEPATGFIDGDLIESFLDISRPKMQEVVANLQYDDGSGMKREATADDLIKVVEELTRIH

As to `O=C1CCC(N2Cc3cc(C(=O)N4CCc5c(F)ccc(F)c54)ccc3C2=O)C(=O)N1` (stereo not drawn) [Example 63, 3-(5-(4,7-difluoroindoline-1-carbonyl)-1-oxoisoindolin-2-yl)piperidine-2,6-dione], the inhibition at 0.1 µM on GSPT1 [1] was below 50%. Also, the IC50 in the assay with MV-4-11 cells lay in the range of 100 to 1000 nM.

Regarding `O=C1CCC(N2Cc3cc(C(=O)N4CCc5c4ccc(F)c5F)ccc3C2=O)C(=O)N1` (stereo not drawn) [Example 65, 3-(5-(4,5-difluoroindoline-1-carbonyl)-1-oxoisoindolin-2-yl)piperidine-2,6-dione], the inhibition at 0.1 µM on GSPT1 [1] is below 50%. Also, the IC50 in the assay with MV-4-11 cells was below 100 nM. Regarding `O=C1CCC(N2Cc3cc(C(=O)N4CCc5c4ccc(Cl)c5F)ccc3C2=O)C(=O)N1` (stereo not drawn) [Example 66, 3-(5-(5-chloro-4-fluoroindoline-1-carbonyl)-1-oxoisoindolin-2-yl)piperidine-2,6-dione], the inhibition at 0.1 µM on GSPT1 [1] is below 50%. For the same compound, the IC50 in the assay with MV-4-11 cells was below 100 nM. Take `O=C1CCC(N2Cc3cc(C(=O)Nc4csc5cccc(F)c45)ccc3C2=O)C(=O)N1` (stereo not drawn) [Example 67, 2-(2,6-dioxopiperidin-3-yl)-N-(4-fluorobenzo[b]thiophen-3-yl)-1-oxoisoindoline-5-carboxamide]: the inhibition at 0.1 µM at GSPT1 [1] fell in the range of 50 to 75%. In addition, the IC50 with MV-4-11 cells was below 100 nM. For the compound `O=C1CCC(N2Cc3cc(C(=O)Nc4csc5ccc(F)cc45)ccc3C2=O)C(=O)N1` (stereo not drawn) [Example 68, 2-(2,6-dioxopiperidin-3-yl)-N-(5-fluorobenzo[b]thiophen-3-yl)-1-oxoisoindoline-5-carboxamide], on GSPT1 [1], the inhibition at 0.1 µM fell in the range of 50 to 75%. In the assay with MV-4-11 cells, the IC50 is below 100 nM.

`O=C1CCC(N2Cc3cc(C(=O)Nc4csc5cc(F)ccc45)ccc3C2=O)C(=O)N1` (stereo not drawn) [Example 69, 2-(2,6-dioxopiperidin-3-yl)-N-(6-fluorobenzo[b]thiophen-3-yl)-1-oxoisoindoline-5-carboxamide]: at GSPT1 [1], the inhibition at 0.1 µM is 50 to 75%. In addition, the IC50 with MV-4-11 cells was below 100 nM.

With `O=C1CCC(N2Cc3cc(C(=O)Nc4csc5c(F)cccc45)ccc3C2=O)C(=O)N1` (stereo not drawn) [Example 70, 2-(2,6-dioxopiperidin-3-yl)-N-(7-fluorobenzo[b]thiophen-3-yl)-1-oxoisoindoline-5-carboxamide], the inhibition at 0.1 µM on GSPT1 [1] was below 50%. Besides, the IC50 with MV-4-11 cells was below 100 nM. The corresponding values for `O=C1CCC(N2Cc3cc(C(=O)NC45CC(F)(C4)C5)ccc3C2=O)C(=O)N1` (stereo not drawn) [Example 71, 2-(2,6-dioxopiperidin-3-yl)-N-(3-fluorobicyclo[1.1.1]pentan-1-yl)-1-oxoisoindoline-5-carboxamide] are below 50% and above 1000 nM. The corresponding values for `O=C1CCC(N2Cc3cc(C(=O)NC45CCC(F)(CC4)CC5)ccc3C2=O)C(=O)N1` (stereo not drawn) [Example 72, 2-(2,6-dioxopiperidin-3-yl)-N-(4-fluorobicyclo[2.2.2]octan-1-yl)-1-oxoisoindoline-5-carboxamide] are 50 to 75% and 100 to 1000 nM. `O=C1CCC(N2Cc3cc(C(=O)N4CCc5c(Cl)ccc(F)c54)ccc3C2=O)C(=O)N1` (stereo not drawn) [Example 86, 3-(5-(4-chloro-7-fluoroindoline-1-carbonyl)-1-oxoisoindolin-2-yl)piperidine-2,6-dione]: in the assay on HCC827 cells (HCC827, 72 h), the IC50 was above 1000 nM. As for `O=C1CCC(N2Cc3cc(C(=O)N4Cc5cccc(F)c5C4)ccc3C2=O)C(=O)N1` (stereo not drawn) [Example 87, 3-(5-(4-fluoroisoindoline-2-carbonyl)-1-oxoisoindolin-2-yl)piperidine-2,6-dione], the IC50 with HCC827 cells (HCC827, 72 h) was below 1000 nM. Besides, the inhibition at 1 µM on GSPT1 [2] is above 75%. For `O=C1CCC(N2Cc3cc(C(=O)N4Cc5ccc(F)cc5C4)ccc3C2=O)C(=O)N1` (stereo not drawn) [Example 88, 3-(5-(5-fluoroisoindoline-2-carbonyl)-1-oxoisoindolin-2-yl)piperidine-2,6-dione], the IC50 with HCC827 cells (HCC827, 72 h) is below 1000 nM. Moreover, the inhibition at 1 µM at GSPT1 [2] is above 75%.

For the compound `O=C1CCC(N2Cc3cc(C(=O)Nc4nsc5ccccc45)ccc3C2=O)C(=O)N1` (stereo not drawn) [Example 89, N-(benzo[d]isothiazol-3-yl)-2-(2,6-dioxopiperidin-3-yl)-1-oxoisoindoline-5-carboxamide], the IC50 in the assay on HCC827 cells (setting [4]) was above 1000 nM. The same measure, in the same setting: under `O=C1CCC(N2Cc3cc(C(=O)Nc4cscn4)ccc3C2=O)C(=O)N1` (stereo not drawn) [Example 90, 2-(2,6-dioxopiperidin-3-yl)-1-oxo-N-(thiazol-4-yl)isoindoline-5-carboxamide] stands above 1000 nM. For `O=C1CCC(N2Cc3cc(C(=O)Nc4csc5ccccc45)c(F)cc3C2=O)C(=O)N1` (stereo not drawn) [Example 91, N-(benzo[b]thiophen-3-yl)-2-(2,6-dioxopiperidin-3-yl)-6-fluoro-1-oxoisoindoline-5-carboxamide], the IC50 in the assay with A549 cells is below 1000 nM. The inhibition at 1 µM on GSPT1 [3] was above 75%.

`O=C1CCC(N2Cc3cc(C(=O)N4CCc5c(F)cc(F)cc54)ccc3C2=O)C(=O)N1` (stereo not drawn) [Example 92, 3-(5-(4,6-difluoroindoline-1-carbonyl)-1-oxoisoindolin-2-yl)piperidine-2,6-dione]: the IC50 with A549 cells is below 1000 nM.

With `O=C1CCC(N2Cc3cc(C(=O)Nc4ccccc4)ccc3C2=O)C(=O)N1` (stereo not drawn) [Example 93, 2-(2,6-dioxopiperidin-3-yl)-1-oxo-N-phenylisoindoline-5-carboxamide], the IC50 with A549 cells was in the range of 1000 to 30000 nM. Take `O=C1CCC(N2Cc3cc(C(=O)Nc4ccccc4F)ccc3C2=O)C(=O)N1` (stereo not drawn) [Example 94, 2-(2,6-dioxopiperidin-3-yl)-N-(2-fluorophenyl)-1-oxoisoindoline-5-carboxamide]: the IC50 in the assay with A549 cells was above 1000 nM. Still for that read-out and setting: under `O=C1CCC(N2Cc3cc(C(=O)Nc4cccc5cccnc45)ccc3C2=O)C(=O)N1` (stereo not drawn) [Example 95, 2-(2,6-dioxopiperidin-3-yl)-1-oxo-N-(quinolin-8-yl)isoindoline-5-carboxamide] stands above 1000 nM.

Regarding `O=C1CCC(N2Cc3cc(C(=O)NC4CCCCC4)ccc3C2=O)C(=O)N1` (stereo not drawn) [Example 96, N-cyclohexyl-2-(2,6-dioxopiperidin-3-yl)-1-oxoisoindoline-5-carboxamide], the IC50 in the assay with A549 cells is 1000 to 30000 nM. Moreover, the inhibition at 1 µM on GSPT1 [3] is 50 to 75%.
